Drawing on PubChem BioAssay (NCI), this text covers TGI and GI50 for 30 molecules.

Assay in all cases: inhibition of tumour cell growth, NCI panel, 48 h
The test system of experiment [1] is SK-MEL-28 melanoma.
Experiment [2] has as its system COLO 205 colon.
Experiment [3] concerns SF-268 CNS.
Experiment [4] concerns RPMI-8226 leukemia.
Experiment [5] has as its system MALME-3M melanoma.
For experiment [6], the system named is HT29 colon.
Experiment [7] has as its system KM12 colon.
The subject of experiment [8] is NCI-H226 lung.
The test system of experiment [9] is MCF7 breast.

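Method: 48-hour compound exposure of cells in 96-well plates, five concentrations, linear interpolation of endpoints. GI50 = concentration required for 50% inhibition of growth. Definition used: TGI = concentration required for complete inhibition of growth.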

For `C(=C\C(Sc1ccccc1)c1ccccc1)/NNC1=NC(c2ccccc2)C(c2ccccc2)=NN1` (configuration not stated), the TGI in experiment [1] is over 100 µM; in experiment [2], over 100 µM; in experiment [3], over 100 µM; in [4], 45.5 µM; in experiment [5], over 100 µM; in experiment [6], 35.4 µM. Also, the TGI in experiment [7] and in experiment [8] was over 100 µM throughout.

In the case of `c1ccc2c(c1)Cc1c(Cc3csc4ccccc34)ccc3cccc-2c13`, the TGI in experiment [1], in experiment [2], in experiment [3], in [4], in experiment [5] and in experiment [6] was over 100 µM throughout. The TGI in experiment [7] is over 100 µM.

Regarding `CCOC(=O)c1[nH]c2cc(OC)c(OC)cc2c1CN(C)C`, the TGI in experiment [1], in experiment [3], in experiment [4], in experiment [5], in [6] and in [7] was over 100 µM each time. For the same molecule, the TGI in experiment [8] is over 100 µM.

`CCN1C(=O)N(CC)C2C1NN=c1s/c(=C3\C(=O)N(C4CCCC4)c4ccccc43)c(=O)n12` (configuration not stated): the GI50 is 1.18 µM in [1]; 1.89 µM in experiment [2]; 2.38 µM in experiment [3]; 1.91 µM in experiment [4]; 1.26 µM in experiment [5]; 0.695 µM in [6]. Besides, the values for the GI50 in experiment [9], in [7] and in experiment [8] were 0.382 µM, 0.689 µM and 1.47 µM, respectively. The TGI in [1] is over 100 µM; in experiment [2], 12.2 µM; in [3], 27.6 µM; in experiment [4], 7.31 µM; in [5], 8.74 µM; in [6], over 100 µM. Moreover, the TGI in experiment [9] was over 100 µM; in experiment [7], over 100 µM; in [8] it was 5.54 µM.

Regarding `Cc1ccc(N=C2N=C(N3CC(C)OC(C)C3)c3ccccc32)cc1` (configuration not stated), the TGI in experiment [1] was 87.2 µM; in [2], over 100 µM; in [3], over 100 µM; in [4], 87.1 µM; in experiment [5] it was 99.4 µM; in experiment [6], 65 µM. Moreover, the TGI is 62.5 µM in experiment [7] and over 100 µM in experiment [8].

For `O=C(N/C(=C\c1ccccc1O)c1nc2ccccc2[nH]1)c1ccccc1`, the TGI in [1], in [2], in [3], in experiment [4], in experiment [5] and in [6] was over 100 µM each time. Moreover, the TGI in [7] was over 100 µM.

In the case of `COc1ccc(O)cc1C(O)c1ccccc1` (configuration not stated), the TGI in [1], in experiment [2], in experiment [3], in [5], in [6] and in [7] was over 100 µM throughout. This molecule also yielded a TGI in experiment [8] of over 100 µM.

Regarding `CC(=O)NNc1nc(C)c(C(=O)NNC(=O)C(=O)Nc2c([N+](=O)[O-])ccc(C)c2C)s1`, the TGI in experiment [1], in experiment [2], in experiment [3], in experiment [4], in [5] and in experiment [6] was over 100 µM in each case. Further, the TGI in experiment [7] and in experiment [8] was over 100 µM throughout.

Consider `CC(=O)c1ccccc1NC(=O)C(=O)C(C(=O)c1ccccc1-c1ccccc1)C1OC(=O)c2ccccc21` (configuration not stated), for which the TGI was 46.1 µM in experiment [2]; over 100 µM in experiment [4]; 34.3 µM in [5]; 56.1 µM in experiment [6]; 34.3 µM in experiment [7]; 36.2 µM in experiment [8].

For `CCOC(=N)CC(=O)Nc1ccccc1`, the TGI in experiment [1] was over 46.4 µM; in experiment [2], over 46.4 µM; in [3], over 46.4 µM; in [4], 22.8 µM; in [5] it was over 46.4 µM; in [6], over 46.4 µM. Also, the TGI in [7] is over 46.4 µM; in experiment [8] it was over 31.6 µM.

On to `CC1(C)C(=O)C(C)(C)C1=NNC(N)=S`, for which the TGI in experiment [1], in experiment [2], in [3], in experiment [4], in [5] and in experiment [6] was over 100 µM throughout. Moreover, the TGI in experiment [7] and in experiment [8] was over 100 µM each time.

`CCCCCCCCCCCCCCCC(=O)OCCOCCOCCOCCOCCOC(=O)CCCCCCCCCCCCCCC`: the TGI in experiment [1], in experiment [2], in [3], in [4], in experiment [5] and in experiment [6] was over 100 µM in each case. Moreover, the TGI in experiment [7] and in experiment [8] was over 100 µM throughout.

As to `COc1cc([N+](=O)[O-])c(S(=O)(=O)O)cc1-n1nc(C(=O)Nc2ccccc2)n[n+]1-c1cc(S(=O)(=O)[O-])c([N+](=O)[O-])cc1OC`, the TGI in experiment [1], in experiment [2], in experiment [3], in experiment [4], in experiment [5] and in experiment [6] was over 100 µM each time. For the same molecule, the TGI in experiment [9], in experiment [7] and in experiment [8] was over 100 µM in each case.

Consider `CCc1cc2c(O)c(c1)Cc1cc(CC)cc(c1O)Cc1cc(CC)cc(c1O)Cc1cc(CC)cc(c1O)Cc1cc(CC)cc(c1O)Cc1cc(CC)cc(c1O)Cc1cc(CC)cc(c1O)C2`, for which the TGI in [1], in experiment [2], in experiment [3], in experiment [4], in experiment [5] and in experiment [6] was over 100 µM in each case. Also, the TGI in [7] was over 100 µM.

With `O=C1C=C2CCCC2C(C(=O)O)(C(=O)O)C1` (configuration not stated), the TGI in experiment [1], in experiment [2], in experiment [3], in [4], in experiment [5] and in experiment [6] was over 100 µM throughout. In experiment [7], this molecule yielded a TGI of over 100 µM.

In the case of `O=C(N=c1nc(NC(=O)c2ccccc2)ss1)c1ccccc1`, the TGI in experiment [1] was over 100 µM; in [2], 47.3 µM; in experiment [3] it was over 100 µM; in experiment [4], 77.6 µM; in experiment [5] it was over 100 µM; in experiment [6] it was 37.6 µM. The TGI in experiment [7] and in [8] was over 100 µM throughout.

In the case of `O=C(CC1C(=O)Nc2ccccc2S1(=O)=O)Nc1ccc(Cl)cc1` (configuration not stated), the TGI is 74.5 µM in experiment [1]; 28.6 µM in experiment [3]; 29.6 µM in experiment [4]; 86.9 µM in experiment [5]; over 100 µM in experiment [6]; over 100 µM in experiment [8].

Regarding `COc1ccc(S(=O)(=O)Nc2c(/C=C\c3cc(OC)c(OC)c(OC)c3)ccc(OC)c2O)cc1`, the GI50 in experiment [2] is 0.406 µM; in [3], 0.0838 µM; in experiment [4] it was 0.0469 µM; in experiment [5] it was 15.1 µM; in experiment [6] it was 1.4 µM; in experiment [9], 0.038 µM. Also, the figures for the GI50 in [7] and in [8] were 0.0355 µM and 41.3 µM, respectively. Besides, the TGI was 1.91 µM in experiment [2]; 91.6 µM in experiment [3]; 22.4 µM in experiment [4]; over 100 µM in experiment [5]; 10.8 µM in experiment [6]; over 100 µM in experiment [9]. Also, the TGI in [7] and in experiment [8] was over 100 µM in each case.

With `N#C/C(=C1\OC(=N)C(c2ccccc2)C1=O)c1ccccc1` (configuration not stated), the TGI in experiment [1] was 20.2 µM; in [2], 44.2 µM; in experiment [3], over 100 µM; in [4], 73.3 µM; in experiment [5], 36.8 µM; in [6] it was 57.7 µM. The TGI in experiment [7] and in experiment [8] was over 100 µM throughout.

On to `Cc1ccc(/C=C/C(=O)c2sc(-n3nc(-c4ccccc4)cc3-c3ccccc3)nc2C)cc1`, for which the TGI in [1], in [2], in experiment [3], in experiment [4], in experiment [5] and in experiment [6] was over 100 µM throughout. Also, the TGI in [7] and in experiment [8] was over 100 µM in each case.

In the case of `Nc1nc2c(-c3ccc([N+](=O)[O-])cc3)nnn2c2ccccc12`, the TGI in experiment [1], in experiment [2], in [3], in experiment [4], in experiment [5] and in experiment [6] was over 100 µM throughout. For the same molecule, the TGI in experiment [7] and in experiment [8] was over 100 µM in each case.

With `COc1ccc(/C=C/C(=O)c2c(-c3ccccc3)nn(C)c(=O)c2N2CCOCC2)cc1`, the TGI in [1], in experiment [2], in [3], in experiment [4] and in experiment [6] was over 100 µM in each case.

For the molecule `COc1cc2ncnc(Nc3ccc(Oc4ccnc(C)c4)c(C)c3)c2cc1NC(=O)CC1CCSS1` (configuration not stated), the GI50 in [3] is 0.94 µM; in experiment [4], 1.14 µM; in experiment [8], 1.68 µM. In addition, the figures for the TGI in experiment [3], in [4] and in experiment [8] were 2.17 µM, 3.31 µM and over 12.9 µM, respectively.

On to `C/C=C/C(=O)[O-].C/C=C/C(=O)[O-].N.N.N.N.[Co+3].[O-][Cl+3]([O-])([O-])[O-]`, for which the GI50 in experiment [1], in experiment [2], in [3], in [4], in experiment [5] and in [6] was over 100 µM in each case. Further, the GI50 in experiment [7] is over 100 µM. In addition, the TGI in experiment [1], in [2], in [3], in experiment [4], in experiment [5] and in experiment [6] was over 100 µM in each case. Also, the TGI in experiment [7] is over 100 µM.

Take `NS(=O)(=O)c1ccc(NC(=O)C2C(=O)C(=O)N(c3ccc(S(N)(=O)=O)cc3)C2=O)cc1` (configuration not stated): the TGI in experiment [1], in experiment [2], in [3], in experiment [4], in [5] and in [6] was over 100 µM each time. Further, the TGI in experiment [8] was over 100 µM.

Consider `CC1(C)c2ccccc2N2O[C@@H]3C(=O)N(c4ccccc4)C(=O)[C@@H]3C21c1ccccc1` (some centres not stated), for which the TGI in experiment [1], in [2], in experiment [3], in experiment [4], in [5] and in experiment [6] was over 100 µM each time. Further, the TGI in experiment [7] and in [8] was over 100 µM each time.

In the case of `CCCCNC(=S)OCCC(C)CCCC(C)C` (configuration not stated), the TGI in [1], in [3], in [4], in experiment [5], in experiment [6] and in experiment [7] was over 100 µM in each case.

As to `NCCCNc1nc2ccccc2c2c(=O)c3cccc(Cl)c3sc12`, in [1], the GI50 is 1.81 µM and the TGI worked out at 3.29 µM. Besides, in experiment [5], the GI50 was 1.57 µM and the TGI amounted to 3 µM.

Consider `O=C(CCC(=O)Nc1cccc(C(F)(F)F)c1)CC(=O)c1ccc2ccccc2c1`, for which the TGI in experiment [2], in [3], in [4], in [5], in experiment [6] and in [7] was over 100 µM in each case. The same molecule registered a TGI in experiment [8] of over 100 µM.

`CC1C=CC(C(N)C(=O)O)O1` (configuration not stated): the TGI in experiment [1], in experiment [2], in experiment [3], in experiment [4], in experiment [5] and in [6] was over 100 µM in each case. In addition, the TGI in experiment [7] and in experiment [8] was over 100 µM throughout.
